Results reported in EP0366451A2, “The use of oxidized polyamines, especially NN'-Bis-(3-propionaldehyde)-1-4-diaminobutane (sperminedialdehyde) as immunosuppressive agents” (ORTHO PHARMACEUTICAL CORPORATION, priority 1988, dated 1990).

System: ALDH
Test: ALDH assay in L1210/0 cells
Type: biochemical, Murine
Conditions: SDA as substrate
Procedure: Cultured murine leukemic cells and livers (excised from mice immediately after cervical dislocation) were homogenized in 3 volumes of ice-cold 1.15% KCl and 1 mM EDTA. The homogenate was centrifuged at 100,000 g for 45 min and the resulting supernatant was used to measure cytosolic ALDH activity. For particulate ALDH assay, the pellet (and homogenate for total ALDH) was resuspended in homogenizing buffer and treated with 0.25% Triton X-100 for 30 min at 4°C. The solubilized preparations were centrifuged at 48,000 g for 30 min and the supernatants were drawn off for ALDH determinations.
ALDH activity was measured by monitoring the reduction of NAD or NADp for 5-6 min at […] at 37°C in DU70 spectrophotometer (Beckman). The assay mixture contained 50 mM potassium phosphate buffer, pH 7.4, 2.0 mM NAD (or NADP) and 1.0 mM EDTA. The reaction was started by adding the substrate (SDA or other aldehyde) to the prewarmed (5 min at 37°C) assay mixture containing enzyme preparation. Pyrazole (0.1 mM) was added particularly for liver enzyme, to inhibit alcohol dehydrogenase. The apparent Km and maximum velocity (Vmax) values were calculated using a Lineweaver-Burk plot based on the estimation of the slope by regression analysis. Enzyme activity was expressed as mU (nmoles/min) per mg of protein. Protein contents were determined by the Bradford method, using bovine serum albumin as the standard.

Compound: O=CCCNCCCCNCCC=O [SDA, NN′-Bis-(3-propionaldehyde)-1-4-diaminobutane]
- enzyme activity in L1210/0 cells: did not exhibit any detectable enzyme activity
